Data set [1] has as its system HL-60 cells. Particulars: 48 hours.
For data set [2], the system named is HL-60 cells. The data set is described as follows: ATP bioluminescence assay (intracellular ATP content). The format is cell-based, human. Particulars: 16 hours, percent of untreated control. The method, then: ATP content was measured with the ATP bioluminescence assay kit HS II from Boehringer Mannheim (Roche Molecular Biochemicals, Mannheim, Germany). Cells were treated with adenosine and BR for 16 hours, and subsequently their viability was measured by trypan blue exclusion. […] An equal amount of cell lysis reagent was then added, and after an incubation period of 5 minutes at room temperature, the samples were transferred to microtiter plates. A Luciferase reagent (100 μl) was added and the signal was detected immediately on a lumi Imager F1 (Roche). Experiments were done in triplicates, and the values of treated samples calculated as percent of untreated controls. […] Cells were harvested and the intercellular ATP content was measured as described in herein. Statistical analysis by t-test confirmed that the differences between ATP-levels after treatment with BR (+/−adenosine) were significant (p<0.05).

For data set [3], the system named is HL-60 cells. Kind of data set: Comet assay (single cell gel electrophoresis), DNA strand breaks. Format: cell-based, human. As to conditions: for DNA tail length: % of cells <= 25 μm: 16 hours, alkaline pH 13.0; for DNA single strand breaks: alkaline pH (13.0).
Data set [4] relates to HL-60 cells. The data set is described as follows: Deoxyribonucleotide (dNTP) extraction and DNA-polymerase assay. The format is cell-based, human. As to conditions: 16 hours; for % dATP / % dCTP: percent of control. The procedure:
The TCA extract was dried using a Speedvac drying system at room temperature and, if necessary, stored at −20° C. until analysis. The assay for dNTP, which is based on the original DNA-polymerase assay^22, was optimized by the use of 96-well plates^23 and tailor-made oligonucleotides^24,25, and was performed as previously described for dCTP^21. After reconstitution of the samples in Hepes-buffered assay buffer (pH 7.3) at 10^7 cells/ml, samples and standards (0, 1, 2.5 and 5 pmol dNTP) were added to diethylaminoethyl (DEAE) filter plates (Millipore, Ettenleur, The Netherlands). This was followed by the addition of demi water (up to 30 μl if a reaction mix, consisting of 10 μl [8-^3H]dATP (25 μM; 1.6 Ci/mmol; 0.04 μCi/μl) for detection of dCTP, dTTP and dGTP and 10 μl[CH3-^3H]dTTP (25 μM; 1.6 Ci/mmol; 0.04 μCi/μl) for dATP detection, 5 μl appropriate oligonucleotide (6 μM. consisting of a primer attached to one of four possible templates specially designed for the detection of one of the four dNTPs), 5 μl Klenow DNA pol I and […] assay buffer. The filterplates were gently vortexed and incubated at room temperature for 2 hours. The wells were washed, the wet filters punched out and radioactivity counted as described^21. The dNTP levels were determined after 16-hours of treatment. At this time point, cells were still alive and membranes intact, preventing non-specific loss of dNTP's^33. […] Whereas, dCTP (89% of control)- and dATP (81% of control)-levels were in the range of control when cells were treated with 5 μM BR, exposure to 20 μM BR, caused a drop in dCTP and dATP levels to 37% and 33%, respectively.

A short description of data set [5]: in vitro. As to conditions: human.
Data set [6] has as its system leukemia cells. Kind of data set: Oncolytic activity against leukemia cells. The format is cell-based.
In data set [7] the test system is HL-60 cells. Kind of data set: Western blots: PARP, gelsolin and Caspase 3 cleavage. Format: cell-based, human. The method, then:
Cells from treated and untreated cultures were sedimented, washed in cold PBS, and lysed in SDS sample buffer (25 mM TRIS pH 6.8, 3% SDS, 10% glycerol, 36 mM DTT, 0.925 mM EDTA). Equal amounts of protein (calculated with the Dot Metric Protein Assay Kit from Novus Molecular, San Diego, Calif., USA) were loaded onto 10% or 15% polyacrylamide gels. Proteins were electrophoresed at 80 V for 2 to 3 hours, and then transblotted onto PVDF membranes (Hybond P, Amersham International, UK) at 80 V for 2 hours^20. Membranes were quenched in PBS with 0.5% skim milk and 0.05% Tween 20 for 1 hour, incubated with primary antibodies (mouse monoclonal anti PARP C-2-10 used 1:2000, mouse monoclonal anti-gelsolin used 1:2000, Sigma; rabbit polyclonal anti caspase 3 antibody used 1:1000, St. Cruz) overnight at 4° C., and with horseradish peroxidase, conjugated secondary antibody for 2 hours at room temperature. The ECL kit (Amersham International, UK) was used for blot development; chemiluminescence was detected on Kodak Xomat UV films.
Controls were treated with saline for 24 hours and western blots were performed as described herein. The 89 kD cleavage product of PARP and the 41 kD cleavage product of gelsolin could be detected upon treatment with 5 μM and 10 μM BR, and diminished in response to higher doses of BR.
5 μM and 10 μM BR, which mainly induce apoptosis, triggering processing of caspase 3.20 μM and 40 μM BR mainly provokes necrosis. This is also reflected by the reduced levels of activated caspase 3. In the presence of adenosine, 20 μM and 40 μM BR activate caspase 3 and also induce apoptosis. Equal sample loading was controlled by Ponceau S staining.

Data set [8] relates to HL-60 cells. Kind of data set: Transmission electron microscopy of cell morphology. The format is cell-based, human. As to conditions: 48 hours. The method, then: For transmission electron microscopy (TEM) cells treated with PBS (controls), […] glutaraldehyde (in 0.1 M sodium cacodylate buffer with 4% sucrose, pH 7.2) for 45 minutes, washed in sodium cacodylate buffer and post-fixed in 2% osmium tetroxide (in 0.1 M sodium cacodylate buffer with 4% sucrose) for 45 minutes. Following several washes, the cells were concentrated by centrifugation at 150 g for 5 minutes, dehydrated in a graded series of ethanol, washed in propylene oxide, embedded in Epon (Serva, Germany), and sectioned at about 70 nm. The ultra-thin sections were stained with uranyl acetate/lead citrate for observation with a Zeiss EM 902 transmission electron microscope.
The bars at the lower right corners indicated 1.1 μm.

Where “and” joins values, the source holds several entries; their conditions need not be identical. Equal values may be shown once. Read-outs that look alike come from different tables or passages of the source.

For the compound `CC1=C(/C=C/C(C)=C/C=C/C(C)=C/C(=O)O)C(C)(C)CCC1` [ATRA, all-trans retinoic acid, reference compound], in data set [1] (120 μM ATRA), the “% apoptotic cells” value is 30% and the “% necrotic cells” value is listed as 45%.
For the compound `Nc1ncnc2c1ncn2[C@@H]1O[C@H](CO)[C@@H](O)[C@H]1O` [Ade, adenosine, reference compound], in data set [2] (adenosine alone (800 μM)), the “% ATP” value is reported as 85%. The “DNA tail length: % of cells <= 25 μm” value in data set [3] (adenosine alone) amounted to 98% <= 25 μm. Besides, in data set [4] (adenosine alone), the “% dATP” value stood at 70% and the “% dCTP” value worked out at 64%. In data set [1] (adenosine alone), the “% apopt” value was 7%, the “% necro” value is recorded as 0%, the “% total death” value was 7% and the “% viable + apopt” value worked out at 100%. In data set [5], this compound displayed a viability at 48 h, 800 µM of 93%.
Turning to `NC(=O)c1cccc([C@@H]2O[C@H](CO)[C@@H](O)[C@H]2O)c1` [BR, benzamide riboside], the “concentration range of strong oncolytic activity” value in data set [6] lay within 5 to 10 µM. Also, the “% ATP” value in data set [2] (5 μM BR +/- adenosine (800 μM)) was 50%; in data set [2] (20 μM BR +/- adenosine (800 μM)), 3% and 2.7%. In addition, the figures for the “DNA single strand breaks” value in data set [3] (5 μM BR) and in data set [3] (20 μM BR) were “but not with 5 μM BR treatment” and “DNA single strand breaks occurred”, respectively. Further, the “DNA tail length: % of cells <= 25 μm” value in data set [3] (20 μM BR +/- adenosine) is listed as 50% <= 25 μm. In addition, the “DNA double strand breaks” value in data set [3] (20 μM BR, 8 hours, neutral pH (7.5)) is given as “induced DNA double strand breaks”. In addition, the figures for the “% dATP” value in data set [4] (5 μM BR +/- adenosine) and in data set [4] (20 μM BR +/- adenosine) were 81% and 33%, respectively. In addition, the “% dCTP” value in data set [4] (5 μM BR +/- adenosine) came out at 89%; in data set [4] (20 μM BR +/- adenosine), 37%. For the same compound, the “dGTP levels, % of control” value in data set [4] (5 μM or 20 μM BR) is “approximately 53%”. The “cell death and gelsolin cleavage” value in data set [7] (0.5 μM, 1 μM or 2 μM BR, 24 hours) is reported as “neither induced cell death, nor gelosin cleavage”. Besides, the “Caspase 3 activation (p20 kD fragment)” value in data set [7] (5 μM and 10 μM BR, 24 hours) was “Caspase 3 activation culminated”; in data set [7] (20 μM or 40 μM BR +/- 800 μM adenosine), “activation was inhibited”. The “cell death mode; gelsolin (41 kD) and PARP (89 kD) fragmentation” value in data set [7] (5 μM or 10 μM BR, 24 hours) is on record as “caused apoptosis”. For the same compound, the “cell death mode; PARP and gelsolin fragmentation” value in data set [7] (20 μM BR, 24 hours) is recorded as “increase of the fraction of necrotic cells”. For the same compound, the results for the “cell morphology by electron microscopy” value in data set [8] (5 μM BR) and in data set [8] (20 μM BR) were “electron dense chromatin marginated at the nuclear envelope as a hallmark of apoptosis” and “typical necrotic morphology”, respectively. Further, the “% apopt” value is given as 69% in data set [1] (5 μM BR +/- adenosine) and 30% in data set [1] (20 μM BR +/- adenosine). Also, the entries for the “% necro” value in data set [1] (5 μM BR +/- adenosine) and in data set [1] (20 μM BR +/- adenosine) were 2% and 51%, respectively. Moreover, the “% total death” value in data set [1] (5 μM BR +/- adenosine) was determined as 71%; in data set [1] (20 μM BR +/- adenosine), 81%. Also, the “% viable + apopt” value in data set [1] (5 μM BR +/- adenosine) stood at 98%; in data set [1] (20 μM BR +/- adenosine) it was 49%.

For the origin of these results see patent US20030148966A1, “Method and composition for inducing apoptosis in cells” (priority 2002, published 2003).
